Measurements: a melting point compilation (Tetko et al.; mined from patent text by program, amines drawn as free bases though some values may be those of a salt)

Structure (SMILES)	melting point [°C]
CCCCCCCCCCCCNC=C1C(=O)ON=C1C	57
CC(C)c1cn2nc(Cl)ccc2n1	106 to 108
CCCCCCCCCCOc1cc(OCCCCCCCCCC)cc(N(CC(=O)O)CC(=O)O)c1	110 to 114
CN(C)C1CNc2c(cc(Br)cc2[N+](=O)[O-])C1 (configuration not stated)	88 to 91
CCOC(=O)N1CC2(C1)N=C(N)c1c(F)cccc1N2	210 to 212
c1ccc2c(c1)CCn1ccnc1C2=C1CCNCC1	287 to 289
CN1OCCN(c2ccc(Cl)c(C(F)(F)F)c2)C1=O	72 to 73
NC(=S)NC(=O)c1ccccc1	170 to 171
COC(=O)ON(C)C(=O)C(C)Nc1c([N+](=O)[O-])cc(C)cc1[N+](=O)[O-] (configuration not stated)	112 to 113
O=C1CN(S(=O)(=O)CC(Cc2ccccc2)C(=O)O)CCN1 (configuration not stated)	168 to 171
CC1CC(=O)c2cc([N+](=O)[O-])c(F)cc2O1 (configuration not stated)	139 to 141
CC1CC(C)CN(CN2C(=O)CN(CC(C)N3CC(=O)N(CN4CC(C)CC(C)C4)C(=O)C3)CC2=O)C1 (configuration not stated)	142 to 144
O=C1Nc2cccnc2C(=O)N2CCCC12 (configuration not stated)	249 to 250
Cc1cc(/C=[N+](\[O-])C(C)C)cc(C)c1O	201 to 203
CCCC(=O)C(=O)NCC(=O)c1cccnc1	80 to 82
C[C@H](Cn1cnc2c(=O)[nH]c(N)nc21)OCP(=O)(O)O	270 to 272
CCC1(C(=O)C(C(O)C(Cl)(Cl)Cl)n2cncn2)CCCC1 (configuration not stated)	194 to 196
NC(=S)c1cn(COC(CO)CO)c2ncnc(N)c12	180 to 181
COc1ccc2c3c1OC1C(=O)C(COS(=O)(=O)c4ccc(C)cc4)(COS(=O)(=O)c4ccc(C)cc4)CC4C(C2)N(C)CCC314 (configuration not stated)	150 to 153
CC12CCC(O)CC1CCC1C2CCC2(C)C(=O)CCC12O (configuration not stated)	214 to 217
CCCc1nc(-n2cccc2C(=O)C(F)(F)F)c(C(=O)OC)[nH]1	158 to 159
COCOc1cc(OCOC)c(C(=O)C=Cc2cc(OC)c(OCOC)c(OC)c2)c(O)c1CC=C(C)C	91.2 to 92

Structure (SMILES)	melting point [°C]
CN1CCCC(OC(=O)Nc2ccc(C(F)(F)F)cc2)C1 (configuration not stated)	119 to 120
CCC1OC(=O)CC(O)C(C)C(OC2OC(C)CC(N(C)C)C2O)C(CC=O)CC(C)C(=O)C=CC2(C)OC2C1C (configuration not stated)	128 to 130
CCOC(=O)C(=O)Nc1ccc(C(F)(F)F)cc1C	120 to 121
COc1ccc2c(c1)c(C(=O)OCc1ccccc1)nn2Cc1ccccc1	107 to 109
O=S(=O)(CCCCl)NC1CC1	48 to 49.5
CC(C)C(C)(N)C(N)=S (configuration not stated)	98 to 100
Nc1c(F)cc(Cl)c2c1CCCO2	47 to 50
CC12CCC3c4ccc(O)cc4CCC3C1CCC2=CF (configuration not stated)	125 to 129
CC(=O)NC(=O)C(SC(C)=O)c1ccccc1 (configuration not stated)	96
CN(Cc1cc(C(=O)OC(C)(C)C)ccc1[N+](=O)[O-])C(=O)OC(C)(C)C	56 to 58
CCOC(=O)C1(CCCC(=O)OC(C)(C)C)CCn2c(cc3ccccc32)C1=O (configuration not stated)	104
CC(=O)n1ncn(N=Cc2cccnc2)c1=O	164 to 166
O=c1[nH]c(=S)c(C2c3ccccc3C=Cc3ccccc32)cn1-c1ccc(Sc2n[nH]c(C(F)(F)F)n2)nn1	165
CC(=O)NCCC1CCc2ccc3nn(C)cc3c21 (configuration not stated)	123 to 125
CCSCCc1c(-c2ccccc2)nc(N)n2ncnc12	120 to 122
Cc1cc(C)c(C(=O)P(=O)(CC(C)C)C(=O)c2c(C)cc(C)cc2C)c(C)c1	85 to 86
NC1SC=CN1Sc1ccc(F)cc1F (configuration not stated)	116 to 117
CCOC(=O)N1C=CC2=NC(C)=NC(N(C)c3ccccc3)N21 (configuration not stated)	202
Cc1ccccc1C1CC(=O)c2c(C(F)(F)F)coc2C1 (configuration not stated)	105 to 107
O=C(CCCCCCCCCCCCCCCO)OCOC(=O)CCCCCCCCCCCCCCCO	96.2
ClCc1csc(/C=C/c2ccccc2)n1	88 to 89

Further lines, results first:

melting point [°C]	Structure (SMILES)
95 to 115	NCCC(O)(c1ccc(Br)cc1)c1cccnc1 (configuration not stated)
232 to 235	N#Cc1nc2ccccc2n(-c2ccc(Cl)cc2)c1=O
103 to 105	CC1(C)Oc2ccc(S(=O)(=O)c3ccccc3)cc2C2OC21 (configuration not stated)
98 to 100	CCCc1c(CSc2ncccc2OCC(=O)OCC)ccc(C(C)=O)c1O
193 to 195	Cc1cc2c(cc1C)-n1ccnc1C=C(c1ccc(-n3c(C)nc4cnccc43)cc1)N2
293 to 295	O=C1CCC(N2Cc3cc(CNC(=O)c4cccc(Cl)c4)ccc3C2=O)C(=O)N1 (configuration not stated)
195 to 198	CCOC(=O)c1cc(-c2ccc(Cl)cc2)c(Cl)nc1N
198 to 202	CCn1ncc(C(=O)c2ccc(S(C)(=O)=O)c(N3CCOC(=O)C3)c2Cl)c1O
150 to 151	CC1(c2cccc(N)c2)C2CN(Cc3ccccc3)C(=O)C21 (configuration not stated)
80 to 82	Cc1cc(=O)c2ccc(OCC(O)CNC(C)C)cc2o1 (configuration not stated)
87 to 88	CC(C=O)Oc1ccc(Cl)cc1Cl (configuration not stated)
155 to 159	CCOC(=O)c1cc(=O)c2c(OCC(O)COc3cccc4occc(=O)c34)cccc2o1 (configuration not stated)
108 to 111	COc1ccc(C2COCCOC2)c2sc(NC(=O)c3ccnc(CN4CCCC4)c3)nc12
203 to 204	COc1cc2c(cc1C(F)(F)F)N(C(=O)N(c1cccc(C)c1)c1ncon1)CC2
257 to 258	NC(=O)Cn1c(=O)ccc2cc(Br)ccc21
140	CC(C)CCNC(=S)c1ccc2c(c1)N(C(C)CN1CCC[C@@H]1CO)c1ccccc1S2 (some centres not stated)
213 to 214	CCCNC(=O)Nc1ccc(N)cc1C(=O)NCC1CCN(C(c2ccccc2)c2ccccc2)CC1
> 250	O=C(O)Cn1cc(C(=O)O)c(=O)c2ccccc(=O)c21
189 to 190	O=S(=O)(NCc1ccc(Cl)cc1)c1cc(Cl)c2cccnc2c1O
247	N#Cc1c(Cl)c2cc(Cl)cnc2[nH]c1=O

melting point [°C]	Structure (SMILES)
159 to 160	Cc1nc(C)c(-c2ccnc(Nc3ccc(N4CCCCC4)c(C)c3)n2)s1
165 to 167	CCCCCCCNC(=O)Nc1ccc(O)cc1C(=O)NCC1CCN(C(c2ccccc2)c2ccccc2)CC1
224 to 226	CCN(CC)C(=O)c1c(-c2ccccc2)[nH]c2ccccc12
138 to 140	COc1ccc(C(C)C)cc1-c1cc(C(=O)NCCc2ccccc2)c(OCc2ccccc2)cc1OCc1ccccc1
147	Cc1cc(CNC(=O)c2nc3n(c(=O)c2OCc2ccccc2)CCN3c2ccccc2)ccc1F
46 to 49	CC(C)C[C@H](NC(=O)N1CCCCCC1)C(=O)N[C@](C)(Cc1ccc(OCc2ccccc2)cc1)C(=O)OC(C)(C)C
176 to 177	CN(C(=O)c1ccc(-n2cc3ccccc3n2)cc1)C1CCN(C(=O)OC(C)(C)C)CC1
173 to 175	COc1cc2c(Nc3ccc(Cl)cc3F)ncnc2cc1OCCN1CCN(C)CC1
> 300	CNC(=O)c1cccc(Nc2ncnc3[nH]cc(C(=O)c4ccccc4C)c23)c1
270	O=c1[nH]ncc2c1c(O)nc1ccc(Cl)c(Cl)c12
216 to 217	C=CCNc1nc(NCc2ccccc2)nc2ccc([N+](=O)[O-])cc12
256 to 258	O=C(O)CNC(=O)c1nc2ccc(NCCCN3CCC(OC(c4ccccc4)c4ccccc4)CC3)nn2n1
246 to 248	CCCOc1cccc2cc(-c3ccc4c(c3)C=C(C(=O)Nc3ccc(CN(C)C5CCOCC5)cc3)CCS4(=O)=O)oc12
155	O=C(c1ccccc1[N+](=O)[O-])N1CCCc2ccccc21
127 to 128	CCN(CC)C1=C2N=c3cc(Cl)ccc3=C2Oc2ccccc2N1C
134	Cc1ccc(OCCOc2ccc(C)cc2)cc1
232 to 233	Cc1sc(-c2ccc(C(F)(F)F)cc2)nc1O
210 to 211	Cc1nc(C(O)C2CCc3c(C)c4ccccc4n3C2=O)c[nH]1 (configuration not stated)
108 to 112	CN1C(=O)CC[C@]2(C)c3ccc(-c4ccc(F)cc4F)cc3CC[C@@H]12
135 to 137	CSc1ccc(-c2cnn(-c3ccc(F)cc3)c(=O)c2OC(C)C)cc1

melting point [°C]	Structure (SMILES)
95 to 101	CC(C)c1cccc(C(C)C)c1OS(=O)(=O)C(OC(N)=O)c1c(C(C)C)cccc1C(C)C (configuration not stated)
151 to 153	CCCCC(=O)SCC(Cc1ccccc1)C(=O)Nc1cc(C)cc(C(=O)O)c1 (configuration not stated)
110 to 111	CC(C)N(CCC(CCN(C(C)C)C(C)C)(C(N)=O)c1ccc(-c2ccccc2)cc1)C(C)C
163 to 165	COc1ccc2cc(C#N)ccc2n1
163	CC1(C(=O)O)CCc2onc(-c3ccc(Cl)cc3)c2CC1 (configuration not stated)
193 to 194	COc1cc(C(C)C)c2c(c1)S(=O)(=O)N(COc1cc(C(=O)O)nn1-c1ccccc1)C2=O
224 to 227	CN(C)c1ccc(/C=C/c2cc(/C=C/c3ccc4cc[nH]c4c3)[nH]n2)cc1
101 to 103	Cc1nn(C)c(N)c1C(=O)Nc1ccccc1F
148 to 150	CCCS(=O)(=O)c1cc(C(=O)CCC(=O)c2cc(OC)c(OC)c(OC)c2)cc(OC)c1OCc1ccccc1
193 to 195	C=C(C(=O)c1c(OC)ccc(-c2cccs2)c1OC)c1ccc(C(=O)O)cc1
88 to 89	CC(C)Oc1c(CO)cnc2c(Cl)cccc12
166 to 167	Cc1ccn2c(C(=O)NCc3ccccc3)c(C)nc2c1
92 to 93	COc1ccc(Cc2ccc(Sc3ccccc3)s2)cc1
195 to 196	COc1c(CO)n(C)c(=O)c2ccc(Cl)cc12
54 to 57	COc1cc(C(C)C(=O)NCC(COC(=O)C(C)(C)C)Cc2ccc(C(C)(C)C)cc2)ccc1NS(C)(=O)=O (configuration not stated)
172 to 175	N#Cc1ccc(CN(O)Cc2ccc(C#N)cc2)cc1
> 320	Nc1c(N=O)c(=O)[nH]c(=O)n1Cc1ccc(Cl)cc1
180	COc1ccc(-c2nc(C)c(C(N)=O)s2)cc1
201 to 204	Nc1nc2cc(-c3ccccc3)ccc2c2c1ncn2CCCN1CCCC1=O
